Measured values: US12377176B2, “Cancer diagnostic imaging agents” (Technische Universität München, priority 2019, dated 2025)
Several values for one entry are separate records, joined by “and”; a condition that tells them apart may be missing. Identical values can stand only once. Like-named read-outs stand apart in the source and are kept apart here.

Columns and labels:
HSA [1] = molecular target: T1, HSA (Homo sapiens, UniProt P02768); assay: HSA binding on Chiralpak HSA column; type: in vitro ADME; settings: for Log K HSA: logarithmic K of human serum albumin binding, calibration reference; for HSA Binding: Chiralpak HSA column (50 × 3 mm, 5 μm), (n = 6)
T1 construct: purchased H13H-2433
Description: The mobile phase (A: NH4OAc, 50 mM in water, pH 7 and B: isopropanol) was freshly prepared for each experiment and only used for one day. The column was kept at room temperature and each run was stopped after detection of the signal to reduce the acquisition time. All substances were dissolved in a 0.5 mg/ml concentration in 50% 2-propanol and 50% 50 mM pH 6.9 ammonium acetate buffer. […] All nine reference substances were injected consecutively to establish a non-linear regression with Origin Pro 2016G.

HSA [2] = molecular target: T1, HSA; settings: literature value of human serum albumin binding (Yamazaki 2004); calibration reference; cited from earlier work
PSMA = molecular target: T2, PSMA (Homo sapiens, UniProt Q04609); assay: Determination of IC50: PSMA affinity, competition with ([125I]I-BA)KuE on LNCaP cells; type: binding
T2 construct: endogenous in cells; host or cells: LNCaP cells
Description: After removal of the culture medium, the cells were treated once with 500 μL of HBSS (Hank's balanced salt solution, Biochrom, Berlin, Germany, with addition of 1% bovine serum albumin (BSA)) and left 15 min on ice for equilibration in 200 μL HBSS (1% BSA). […] Quantification of bound and free radioligand was accomplished in a γ-counter.

LNCaP cells = assay: Internalization into LNCaP cells, relative to ([125I]I-BA)KuE; type: cell-based; settings: for internalization rate Mean / individual internalization rates: LNCaP cells, 1 h, 37 °C, c=0.5 nM; for individual internalization rates: single measurements
Description: Data is corrected for non-specific binding ([…]) and expressed as mean±SD (n=3).
Subsequent to the removal of the culture medium, the cells were washed once with 500 μL DMEM-F12 (5% BSA) and left to equilibrate for at least 15 min at 37° C. in 200 μL DMEM-F12 (5% BSA). Each well was treated with either 25 μL of either DMEM-F12 (5% BSA) or a 100 μM PMPA solution for blockade. Next, 25 μL of the ^68Ga/^18F-labeled PSMA inhibitor (5.0 nM) was added and the cells incubated at 37° C. for 60 min. The experiment was terminated by placing the 24-well plate on ice for 3 min and consecutive removal of the medium. Each well was rinsed with 250 μL HBSS and the fractions from these first two steps combined, representing the amount of free radioligand. Removal of surface bound activity was accomplished by incubation of the cells with 250 μL of ice-cold PMPA (10 μM in PBS) solution for 5 min and rinsed again with another 250 μL of ice-cold PBS. The internalized activity was determined by incubation of the cells in 250 μL 1 M NaOH and the combination with the fraction of a subsequent wash step with 250 μL 1.0 M NaOH. Each experiment (control and bloackde) was performed in triplicate. Free, surface bound and internalized activity was quantified in a γ-counter. […] Data were corrected for non-specific internalization and normalized to the specific-internalization observed for the radioiodinated reference compound.

[3] = test system: LNCaP tumor-bearing CB-17 SCID mice; settings: male, mouse, in vivo, 1 h
Description: To establish tumor xenografts, LNCaP cells (10^7 cells/200 μL) were suspended in a 1:1 mixture (v/v) of Dulbecco modified Eagle medium/Nutrition Mixture F-12 with Glutamax-I (1:1) and Matrigel (BD Biosciences, Germany), and inoculated subcutaneously onto the right shoulder of 6-8 weeks old CB17-SCID mice (Charles River, Sulzfeld, Germany). Mice were used for when tumors had grown to a diameter of 5-8 mm (3-4 weeks after inoculation).
Approximately 1-2 MBq (<0.2 nmol) of the ^18F-labeled PSMA inhibitor was injected into the tail vein of LNCaP tumor-bearing male CB-17 SCID mice and sacrificed after 1 h post injection (n=4-5). Selected organs were removed, weighted and measured in a γ-counter

[4] = Octanol-water partition coefficient (n-octanol/PBS pH 7.4); type: physicochemical
Description: Approximately 1 MBq of the labeled tracer was dissolved in 1 mL of a 1:1 mixture (by volumes) of phosphate buffered saline (PBS, pH 7.4) and n-octanol in an Eppendorf tube. After vigorous mixing of the suspension for 3 minutes at room temperature, the vial was centrifuged at 15000 g for 3 minutes (Biofuge 15, Heraus Sepatech, Osterode, Germany) and 100 μL aliquots of both layers were measured in a gamma counter. The experiment was repeated at least six times.
Determianation of the logP values was carried out in phosphate buffered saline (PBS, pH 7.4) and n-octanol (=logPoct/PBS).

[5] = Wängler et al., Bioconjug Chem. 2010; cited from earlier work
[6] = LNCaP cells, [125I]IB-KuE 0.2 nM, 1 h, 4 °C, HBSS+1% BSA, single measurements, read-out: individual IC50 measurements
[7] = LNCaP cells, [125I]IB-KuE 0.2 nM, 1 h, 4 °C, mean of the individual measurements, read-out: IC50 Mean
[8] = mean ± SD as quoted in the discussion

T2 sequence (Q04609 whole entry): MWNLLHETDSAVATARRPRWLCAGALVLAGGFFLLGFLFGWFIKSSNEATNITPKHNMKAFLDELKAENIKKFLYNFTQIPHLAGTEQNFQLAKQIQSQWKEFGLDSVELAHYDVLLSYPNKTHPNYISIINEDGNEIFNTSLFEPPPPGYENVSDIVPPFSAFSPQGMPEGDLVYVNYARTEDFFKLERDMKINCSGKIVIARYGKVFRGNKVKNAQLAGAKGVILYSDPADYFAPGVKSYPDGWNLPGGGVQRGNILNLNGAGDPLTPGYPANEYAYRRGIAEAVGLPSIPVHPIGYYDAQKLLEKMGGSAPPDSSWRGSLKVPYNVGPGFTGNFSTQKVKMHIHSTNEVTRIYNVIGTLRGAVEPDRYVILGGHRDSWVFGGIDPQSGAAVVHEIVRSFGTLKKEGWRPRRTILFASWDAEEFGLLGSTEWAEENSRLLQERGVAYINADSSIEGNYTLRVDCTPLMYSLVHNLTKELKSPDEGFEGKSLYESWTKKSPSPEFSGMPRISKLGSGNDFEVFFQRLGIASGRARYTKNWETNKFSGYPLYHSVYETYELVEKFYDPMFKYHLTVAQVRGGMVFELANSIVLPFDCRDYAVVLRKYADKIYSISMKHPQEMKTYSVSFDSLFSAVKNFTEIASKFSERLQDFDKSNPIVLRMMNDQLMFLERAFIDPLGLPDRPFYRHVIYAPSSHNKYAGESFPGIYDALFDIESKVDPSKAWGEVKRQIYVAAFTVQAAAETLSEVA
T1 sequence (P02768 25-609): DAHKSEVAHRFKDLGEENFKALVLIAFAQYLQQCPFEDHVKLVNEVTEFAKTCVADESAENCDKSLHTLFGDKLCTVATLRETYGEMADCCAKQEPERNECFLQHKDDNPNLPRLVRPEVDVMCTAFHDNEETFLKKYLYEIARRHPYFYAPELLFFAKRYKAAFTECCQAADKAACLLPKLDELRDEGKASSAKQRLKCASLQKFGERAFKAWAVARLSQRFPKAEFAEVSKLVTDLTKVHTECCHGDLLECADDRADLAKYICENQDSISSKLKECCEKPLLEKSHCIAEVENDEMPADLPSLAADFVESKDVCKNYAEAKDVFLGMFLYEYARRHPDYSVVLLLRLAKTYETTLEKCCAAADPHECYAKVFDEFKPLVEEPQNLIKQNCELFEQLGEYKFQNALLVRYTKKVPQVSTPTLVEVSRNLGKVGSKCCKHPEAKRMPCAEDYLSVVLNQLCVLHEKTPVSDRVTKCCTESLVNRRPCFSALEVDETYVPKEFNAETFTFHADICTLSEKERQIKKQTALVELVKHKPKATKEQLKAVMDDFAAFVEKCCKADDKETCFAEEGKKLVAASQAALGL

Compound: Nc1ccccc1 [Aniline]
- Log K HSA (HSA [1]): −0.79
- Lit. HSA % (HSA [2]): 14.06%

Compound: CC(C)(C)[Si](F)(c1ccc(C(=O)NC[C@H](NC(=O)CC[C@@H](C(=O)O)N2CCN(CC(=O)O)CCN(CC(=O)O)CCN(CC(=O)O)CC2)C(=O)N[C@H](CCCCNC(=O)CCC(=O)NCCC[C@@H](NC(=O)CC[C@H](NC(=O)N[C@@H](CCC(=O)O)C(=O)O)C(=O)O)C(=O)O)C(=O)O)cc1)C(C)(C)C [rhPSMA7.4, [^19F][^natGa]L-Dap-S-DOTAGA-rhPSMA7, metal not drawn]
- IC50 (PSMA; [6]): 3.4 nM and 3.56 nM and 2.79 nM and 4.57 nM and 3.78 nM
- IC50 (PSMA; [7]): 3.62 nM
- internalization rate Mean (LNCaP cells): 207.33 % of [^125I]IB-KuE
- individual internalization rates (LNCaP cells): 209.6 % of [^125I]IB-KuE and 202.6 % of [^125I]IB-KuE and 209.8 % of [^125I]IB-KuE
- internalization (LNCaP cells; [8]): 207.33±4.06%
- HSA Binding (HSA [1]): 96.6%
- Biodistribution adrenals [3]: 3.57 ± 2.38 % ID/g
- Biodistribution blood [3]: 1.15 ± 0.30 % ID/g
- Biodistribution bone [3]: 0.62 ± 0.30 % ID/g
- Biodistribution heart [3]: 0.71 ± 0.26 % ID/g
- Biodistribution intestine [3]: 0.37 ± 0.09 % ID/g
- Biodistribution kidneys [3]: 153 ± 80.3 % ID/g
- Biodistribution liver [3]: 0.69 ± 0.20 % ID/g
- Biodistribution lung [3]: 1.59 ± 0.61 % ID/g
- Biodistribution muscle [3]: 0.31 ± 0.08 % ID/g
- Biodistribution pancreas [3]: 0.50 ± 0.30 % ID/g
- Biodistribution spleen [3]: 18.4 ± 9.77 % ID/g
- Biodistribution stomach [3]: 0.25 ± 0.06 % ID/g
- Biodistribution tumor [3]: 18.9 ± 3.27 % ID/g

Compound: O=C(O)CC[C@H](NC(=O)N[C@@H](CCCCNC(=O)c1ccc(F)nc1)C(=O)O)C(=O)O [DCFPyL]
- HSA Binding (HSA [1]): 14.3%

Compound: Oc1ccccc1 [Phenol]
- Log K HSA (HSA [1]): −0.59
- Lit. HSA % (HSA [2]): 20.69%

Compound: COc1ccc(Cl)cc1C(=O)NCCc1ccc(S(=O)(=O)NC(=O)NC2CCCCC2)cc1 [Glibenclamide]
- Log K HSA (HSA [1]): 1.69
- Lit. HSA % (HSA [2]): 99.00%

Compound: PSMA-1007 [reference compound]
- IC50 (PSMA; other selected PSMA inhibitors, own lab, identical binding assay (Robu et al. 2018), read-out: IC50): 4.2 ± 0.5 nM
- internalization (LNCaP cells; other selected PSMA inhibitors, own lab, identical assay (Robu et al. 2018)): 118 ± 4 % of [^125I]IB-KuE
- log P ([4]; octanol/PBS7.4, (n = 6)): −1.6
- HSA Binding (HSA [1]): 97.8%

Compound: SIFA-Asn(AcNH-β-Glc)-PEG-Tyr^3-octreotate
- log P(ow) [5]: 0.96

Compound: CC(C)(C)[Si](F)(c1ccc(C(=O)NC[C@@H](NC(=O)CC[C@H](C(=O)O)N2CCN(CC(=O)O)CCN(CC(=O)O)CCN(CC(=O)O)CC2)C(=O)N[C@H](CCCCNC(=O)CCC(=O)NCCC[C@@H](NC(=O)CC[C@H](NC(=O)N[C@@H](CCC(=O)O)C(=O)O)C(=O)O)C(=O)O)C(=O)O)cc1)C(C)(C)C [rhPSMA7.1, [^19F][^natGa]D-Dap-R-DOTAGA-rhPSMA7, metal not drawn]
- IC50 (PSMA; [6]): 5.04 nM and 7.11 nM and 8.31 nM and 4.97 nM and 6.44 nM and 8.74 nM and 6.91 nM and 7.27 nM
- IC50 (PSMA; [7]): 6.85 nM
- internalization rate Mean (LNCaP cells): 69.55 % of [^125I]IB-KuE
- individual internalization rates (LNCaP cells): 77.5 % of [^125I]IB-KuE and 61.8 % of [^125I]IB-KuE and 70.6 % of [^125I]IB-KuE and 68.0 % of [^125I]IB-KuE and 67.9 % of [^125I]IB-KuE and 71.5 % of [^125I]IB-KuE
- internalization (LNCaP cells; [8]): 69.55%±5.29
- HSA Binding (HSA [1]): 97.7%
- Biodistribution adrenals [3]: 2.0 ± 0.25 % ID/g
- Biodistribution blood [3]: 0.53 ± 0.13 % ID/g
- Biodistribution bone [3]: 0.50 ± 0.31 % ID/g
- Biodistribution heart [3]: 0.53 ± 0.03 % ID/g
- Biodistribution intestine [3]: 0.30 ± 0.16 % ID/g
- Biodistribution kidneys [3]: 220 ± 24.8 % ID/g
- Biodistribution liver [3]: 0.75 ± 0.62 % ID/g
- Biodistribution lung [3]: 1.1 ± 0.21 % ID/g
- Biodistribution muscle [3]: 0.32 ± 0.30 % ID/g
- Biodistribution pancreas [3]: 0.45 ± 0.12 % ID/g
- Biodistribution spleen [3]: 20.0 ± 4.2 % ID/g
- Biodistribution stomach [3]: 0.28 ± 0.17 % ID/g
- Biodistribution tumor [3]: 14.1 ± 4.1 % ID/g

Compound: O=C(O)c1ccccc1 [Benzoic Acid]
- Lit. HSA % (HSA [2]): 34.27%

Compound: O=[N+]([O-])c1ccc(O)cc1 [p-nitrophenol]
- Lit. HSA % (HSA [2]): 77.65%

Compound: CCCN(CCC)S(=O)(=O)c1ccc(C(=O)O)cc1 [Probenecid]
- Lit. HSA % (HSA [2]): 95.00%

Compound: CC(C)(C)[Si](F)(c1ccc(C(=O)NC[C@H](NC(=O)CC[C@H](C(=O)O)N2CCN(CC(=O)O)CCN(CC(=O)O)CCN(CC(=O)O)CC2)C(=O)N[C@H](CCCCNC(=O)CCC(=O)NCCC[C@@H](NC(=O)CC[C@H](NC(=O)N[C@@H](CCC(=O)O)C(=O)O)C(=O)O)C(=O)O)C(=O)O)cc1)C(C)(C)C [rhPSMA7.2, [^19F][^natGa]L-Dap-R-DOTAGA-rhPSMA7, metal not drawn]
- IC50 (PSMA; [6]): 2.64 nM and 2.76 nM and 3.94 nM and 5.8 nM and 4.31 nM and 4.32 nM and 3.17 nM and 2.97 nM and 3.36 nM
- IC50 (PSMA; [7]): 3.7 nM
- internalization rate Mean (LNCaP cells): 191.83 % of [^125I]IB-KuE
- individual internalization rates (LNCaP cells): 192.3 % of [^125I]IB-KuE and 188.7 % of [^125I]IB-KuE and 182.7 % of [^125I]IB-KuE and 169.5 % of [^125I]IB-KuE and 205.3 % of [^125I]IB-KuE and 212.6 % of [^125I]IB-KuE
- internalization (LNCaP cells; [8]): 191.83%±15.54
- individual log P measurements ([4]; octanol/PBS7.4, single measurements): −3.00 and −3.02 and −3.06 and −3.45
- logP ([4]; pH 7.4, log P): -3.13 ± 0.22
- logP ([4]; pH 7.4, log P Mean): -3.13
- HSA Binding (HSA [1]): 97.8%
- Biodistribution adrenals [3]: 1.3 ± 0.8 % ID/g
- Biodistribution blood [3]: 0.56 ± 0.20 % ID/g
- Biodistribution bone [3]: 0.31 ± 0.24 % ID/g
- Biodistribution heart [3]: 0.32 ± 0.13 % ID/g
- Biodistribution intestine [3]: 0.18 ± 0.07 % ID/g
- Biodistribution kidneys [3]: 87.6 ± 28.8 % ID/g
- Biodistribution liver [3]: 0.35 ± 0.08 % ID/g
- Biodistribution lung [3]: 0.89 ± 0.38 % ID/g
- Biodistribution muscle [3]: 0.13 ± 0.07 % ID/g
- Biodistribution pancreas [3]: 0.21 ± 0.08 % ID/g
- Biodistribution spleen [3]: 10.1 ± 6.3 % ID/g
- Biodistribution stomach [3]: 0.19 ± 0.08 % ID/g
- Biodistribution tumor [3]: 6.5 ± 2.3 % ID/g

Compound: SIFA-Asn(AcNH-β-Glc)-Tyr^3-octreotate
- log P(ow) [5]: 1.23
